Data from PMC10647090, “Structure-Based Discovery of Mouse Trace Amine-Associated Receptor 5 Antagonists” (Journal of Chemical Information and Modeling, 2023).
“Also recorded” adds a separate entry of the source. Read-outs that look alike come from different tables or passages of the source.

Experiments:
mTAAR5 [1] = biological target: T1, mTAAR5 (Mus musculus, UniProt Q5QD14); design: method as in PMID 29713997; conditions: training set inactives; cited from earlier work
T1 construct: rho tag (rhodopsin-derived tag) (N); expressed in transfected cells; host or cells: HEK293, transient transfection with lipofectamine 2000; plasmid a gift from Prof; Liberles
T1 sequence (Q5QD14 1-337): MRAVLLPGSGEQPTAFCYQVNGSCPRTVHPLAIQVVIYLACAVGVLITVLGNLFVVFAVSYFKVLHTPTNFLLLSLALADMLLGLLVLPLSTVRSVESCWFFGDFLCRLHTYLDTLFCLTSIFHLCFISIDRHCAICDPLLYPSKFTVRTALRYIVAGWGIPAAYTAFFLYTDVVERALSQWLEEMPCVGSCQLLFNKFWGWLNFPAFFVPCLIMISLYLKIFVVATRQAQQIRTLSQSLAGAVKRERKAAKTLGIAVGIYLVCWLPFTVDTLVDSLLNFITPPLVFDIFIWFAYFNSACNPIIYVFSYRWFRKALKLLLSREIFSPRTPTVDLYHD

mTAAR5 [2] = biological target: T1, mTAAR5; assay: BRET cAMP assay, agonistic activity; assay type: cell-based; conditions: HEK-293 cells transfected with EPAC cAMP BRET biosensor and mTAAR5; compared to saline
Method: (§1) TAAR5 is a receptor coupled to a stimulatory G protein, and its activation evokes cAMP production. Therefore, HEK293 cells were cotransfected with mTAAR5 and cAMP BRET biosensor. Light emission changes according to the cAMP fluctuation.[60] TMA (10 μM) was used as a reference mTAAR5 agonist to evaluate the activity of the compounds throughout the BRET-based assay and tested at 10 μM for either agonistic or antagonistic activity.
Human embryonic kidney 293cells (HEK293) were maintained in Dulbecco’s modified Eagle’s, high glucose, GlutaMAX^TM medium (Gibco^TM) supplemented with 10% 331 (v/v) of FBS and 1% penicillin/streptomycin at 37 °C in a humidified atmosphere at 95% air and 5% CO2. […]
BRET experiments were performed as described previously.[60] […] For the evaluation of the agonistic activity, the plate was read immediately after the addition of the compounds for approximately 20 min. For the evaluation of the antagonistic activity, the compounds were added 5 min before the addition of the control TAAR5 agonist, TMA, and read for approximately 20 min. […] The activity of a putative mTAAR5 antagonist was evaluated in its ability to decrease or abolish the increase of the cAMP levels induced by TMA. […] Readings were collected using Tecan Infinite instrument that allows the sequential signals integration detected in the 465 to 505 nm and 515 to 555 nm windows. […]

empty vector CTRL cells = assay: BRET cAMP assay in cells without mTAAR5 (empty vector); assay type: cell-based, human; conditions: HEK-293 cells transfected with EPAC cAMP BRET biosensor and empty vector; listed as TMA
Method: as §1
Figure S6. Effect of TMA on cAMP level is mediated by mTAAR5. HEK-293 cells were transfected with
EPAC cAMP BRET biosensor with mTAAR5 or empty vector.
calculated as mean ± SEM of 3 independent experiments.
(1 picture or pasted object on this page, not shown here)

mTAAR5 [3] = biological target: T1, mTAAR5; conditions: cited from earlier work; for Potency pEC50 (negative log of EC50, modulating cAMP levels): mTAAR5 agonist; for Potency pIC50 (negative log of IC50, modulating cAMP levels): mTAAR5 antagonists
5-HT1A [4] = conditions: cited from earlier work
5-HT4 = conditions: cited from earlier work
mTAAR5 [5] = biological target: T1, mTAAR5; assay: BRET cAMP assay, antagonistic activity against TMA; assay type: cell-based; conditions: HEK293 cells cotransfected with mTAAR5 and cAMP BRET (EPAC) biosensor; against TMA 10 μM; 3 independent experiments
Method: as §1
Human embryonic kidney 293cells (HEK293) were maintained in Dulbecco’s modified Eagle’s, high glucose, GlutaMAX^TM medium (Gibco^TM) supplemented with 10% 331 (v/v) of FBS and 1% penicillin/streptomycin at 37 °C in a humidified atmosphere at 95% air and 5% CO2. For the bioluminescence resonance energy transfer (BRET) experiments, cells were plated in 10 cm dishes 24 h prior to the transient transfection of 7 μg of rho-TAAR5 (a generous gift from Prof. Liberles) and 7 μg of EPAC using lipofectamine 2000 (Invitrogen). Five h after transfection, cells were plated in poly-D-lysinecoated 96-well microplates (well-assay white plate with clear bottom, Greiner) at a density of 70,000 cells per well in Opti-MEM (Gibco^TM) and then cultured for an additional 24 h. The serotonergic ligand library was purchased from Enzo (SCREEN-WELL Serotonergic ligand library).
BRET experiments were performed as described previously.[60] All the compounds were tested at the initial concentration of 10 μM. For the evaluation of the agonistic activity, the plate was read immediately after the addition of the compounds for approximately 20 min. For the evaluation of the antagonistic activity, the compounds were added 5 min before the addition of the control TAAR5 agonist, TMA, and read for approximately 20 min. For the ones that were active, a concentration–response assessment was performed by using different concentrations of the antagonist. TMA is the standard mTAAR5 agonist and induces an increase in cAMP levels. The activity of a putative mTAAR5 antagonist was evaluated in its ability to decrease or abolish the increase of the cAMP levels induced by TMA. The IC50 was then calculated by measuring the effect of the compounds against the effect of TMA at 10 μM. Readings were collected using Tecan Infinite instrument that allows the sequential signals integration detected in the 465 to 505 nm and 515 to 555 nm windows. EPAC BRET biosensor was used to monitor cAMP levels. BRET ratio is plotted in the graphs. Increased cAMP specifically reflects an increase in the BRET ratio. The activity of an antagonist was evaluated in terms of the ability to counteract the TMA increase in the BRET ratio. The acceptor/donor ratio was calculated as previously described.[108] […] The data are representative of at least 3 independent experiments and are expressed as means ± SEM.

5-HT1F = biological target: 5-HT1F; design: method as in ref 6, 11-12 (SI); conditions: 11-12 (SI); cited from earlier work
5-HT1E = test system: 5-HT1E; design: method as in ref 6, 11-12 (SI); conditions: 11-12 (SI); cited from earlier work
5-HT1A [6] = test system: 5-HT1A; design: method as in ref 13-14 (SI); conditions: ref 13-14 (SI); cited from earlier work

Compound: N-[2-(piperidinylamino)ethyl]-4-iodobenzamide
- activity at mTAAR5 in previous HTS campaigns (mTAAR5 [1]): inactive

Compound: CN(C)C [Compound 1, Trimethylamine]
- effect on cAMP level with mTAAR5 expressed (mTAAR5 [2]): increases cAMP levels
- effect on cAMP level in the absence of mTAAR5 (empty vector CTRL cells): not in empty vector CTRL cells; also recorded: no cAMP fluctuation
- Potency pEC50 (negative log of EC50, modulating cAMP levels) (mTAAR5 [3]): pEC50: 5.49

Compound: COc1ccccc1N1CCN(CC2CCC(c3ccccc3)(c3ccccc3)O2)CC1 (centres unmarked) [Compound 3, 1-[(5,5-Diphenyloxolan-2-yl)methyl]-4-(2-methoxyphenyl)piperazine]
- Potency pIC50 (negative log of IC50, modulating cAMP levels) (mTAAR5 [3]): pIC50: 4.36
- 5-HT1A pKi (5-HT1A [4]; ref 10 (SI)): 7.64

Compound: CCN(CC)CCOC(=O)c1cc(Cl)c(N)cc1OC [Compound 8, 2-(diethylamino)ethyl-4-amino-5-chloro-2-methoxybenzoate]
- 5-HT4 pIC50 (5-HT4; ref 17 (SI)): 6.11
- IC50 (mTAAR5 [5]): 13 µM

Compound: CCCN(CCC)[C@@H]1CCc2c(OC)cccc2[C@@H]1C [(+)-UH 232]
- activity at mTAAR5 in previous HTS campaigns (mTAAR5 [1]): inactive

Compound: CCN(CC)CCNC(=O)c1cc(Cl)c(N)cc1OC [Metoclopramide]
- activity at mTAAR5 in previous HTS campaigns (mTAAR5 [1]): inactive

Compound: CN1CCC(c2c[nH]c3ccc(O)cc23)CC1 [Compound 5, 3-(1-methylpiperidin-4-yl)-1H-indol-5-ol]
- 5-HT1F pKi (5-HT1F): 8.15
- 5-HT1E pEC50 (5-HT1E): 8.16
- IC50 (mTAAR5 [5]): 2.7 µM

Compound: CCCN(CCC)C1CCc2cccc(O)c2C1 (centres unmarked) [Compound 6, 7-(dipropylamino)-5,6,7,8-tetrahydronaphthalen-1-ol]
- 5-HT1A pEC50 (5-HT1A [6]): 7.24
- IC50 (mTAAR5 [5]): 3.8 µM

Compound: COc1ccccc1OCCNCC1COC(c2ccccc2)(c2ccccc2)O1 (centres unmarked) [Compound 4]
- Potency pIC50 (negative log of IC50, modulating cAMP levels) (mTAAR5 [3]): pIC50: 3.54
- 5-HT1A pKi (5-HT1A [4]; ref 5 (SI)): 9.22

Compound: C[N+](C)(C)CCC(=O)c1cccc2ccccc12 [Compound 2, Trimethyl-(3-naphthalen-1-yl-3-oxopropyl)azanium]
- Potency pEC50 (negative log of EC50, modulating cAMP levels) (mTAAR5 [3]): pEC50: 5.82

Compound: COc1cc(N)c(Cl)cc1C(=O)OCCCN1CCCCC1 [Compound 7, 3-(piperidin-1-yl)propyl 4-amino-5-chloro-2-methoxybenzoate]
- 5-HT4 pIC50 (5-HT4; ref 15-16 (SI)): 6.31
- IC50 (mTAAR5 [5]): 4.7 µM
